The values below come from patent US20220280422A1 (Innovation for Success, LLC, priority 2021, published 2022).

For series [1] the following is noted: taken orally in pill form or capsule form; cited from earlier work.
Series [2] can be described thus: Dissolution of melatonin in liquid glycerin. The format is physicochemical. As to conditions: at least 250 mg melatonin per milliliter glycerin. The protocol:
At block 304, the method 300 includes combining melatonin with liquid glycerin, which is also termed glycerol and/or glycerine. The melatonin may be dry and/or powered, and is typically in a crystalized state. As noted above, in an exemplary embodiment, at least 250 mg of melatonin is added per milliliter of glycerin.
Next, at block 308 of the method 300, the melatonin and glycerin mixture is heated to approximately 76.6° C. (170° F.). Moreover, in some embodiments, the melatonin and glycerin mixture is stirred during the heating process.
As shown in block 404, first the method 400 includes mixing melatonin with liquid glycerin. The melatonin may be dry and/or powered, and is typically in a crystalized state. As noted above, in an exemplary embodiment, at least 250 mg of melatonin is added per milliliter of glycerin.
Next, at block 408 of the method 400, the melatonin and glycerin mixture is heated to approximately 76.6° C. (170° F.). Moreover, in some embodiments, the melatonin and glycerin mixture is stirred during the heating process.

Series [3] can be described thus: Recrystallization of melatonin on cooling in food-grade solvents. It counts as physicochemical. As to conditions: dissolved by heating then cooled. From the text: During research of the dissolvable strip 100, several food-grade solvents were identified having a sufficient solubility of melatonin including glycerin, ethanol, oleic acid, and propylene glycol. When heated, each of these solvents is capable of dissolving crystalized melatonin. […] Whereas, as noted above, glycerin incorporates well into the strip 100 at levels up to about 2% to 5%, is compatible with the lipid shell 124, and prevents recrystallization of the melatonin contained by the lipid shell 124.

The target in the next series is T1, CYP1A2 (Homo sapiens, UniProt P05177).
T1 sequence (P05177 1-516): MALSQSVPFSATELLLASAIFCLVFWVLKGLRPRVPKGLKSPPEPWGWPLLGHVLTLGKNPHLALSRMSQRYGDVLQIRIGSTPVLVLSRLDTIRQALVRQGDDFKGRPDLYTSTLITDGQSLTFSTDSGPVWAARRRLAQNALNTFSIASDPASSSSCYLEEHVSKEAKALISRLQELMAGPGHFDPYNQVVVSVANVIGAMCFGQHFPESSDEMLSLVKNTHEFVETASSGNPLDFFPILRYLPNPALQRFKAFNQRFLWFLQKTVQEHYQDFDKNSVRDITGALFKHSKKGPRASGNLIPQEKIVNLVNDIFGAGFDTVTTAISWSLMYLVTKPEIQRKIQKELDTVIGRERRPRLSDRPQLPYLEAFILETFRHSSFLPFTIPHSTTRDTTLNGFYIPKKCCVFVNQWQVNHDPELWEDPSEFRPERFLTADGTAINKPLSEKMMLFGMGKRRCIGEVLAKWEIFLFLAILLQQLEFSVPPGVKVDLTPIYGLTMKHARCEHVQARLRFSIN
The settings on record: in vivo; cited from earlier work.

For series [4] the following is noted: cited from earlier work.

For `COc1ccc2[nH]cc(CCNC(C)=O)c2c1` [non-solubilized melatonin], the “fraction absorbed into the body” value in series [1] is given as “about 15%”.

As to `COc1ccc2[nH]cc(CCNC(C)=O)c2c1` [melatonin, N-acetyl-5-methoxy tryptamine], the “dissolution of melatonin in glycerin” value in series [2] (heated to approximately 76.6° C. and stirred) was “all of the melatonin dissolves”; in series [2] (room temperature (25° C.)), “only a portion of the melatonin dissolves”. In addition, the “recrystallization of melatonin when cooled” value in series [3] (solvent ethanol) is given as “recrystallized”; in series [3] (solvent liquid glycerin), “recrystallized in each of the solvents except for the liquid glycerin”; in series [3] (solvent oleic acid), “recrystallized”; in series [3] (solvent propylene glycol), “recrystallized”. Besides, the “melatonin in the blood removed during each pass through the liver” value at CYP1A2 is 30%-50%. Besides, at CYP1A2, the “melatonin removed from the bloodstream by liver and kidneys” value is recorded as 30-50%. Besides, the solubility in water result in series [4] is listed as “only slightly soluble in water”.
